The text below walks through data of patent publication US20170138969A1, “System And Method For Measuring Permeability Of Drugs/Toxic/Chemical Compounds” (Indian Institute Of Technology Madras, priority 2014, published 2017).

The nature of the data set: Membrane integrity test in lipid monolayer (LB) PAMPA system. It counts as in vitro ADME. On the procedure:
FIG. 3-4 illustrates graphs 300-400 illustrating the membrane integrity test, in accordance with the disclosed embodiments. The membrane integrity test can be performed according to the standard protocol. An 80 μl aqueous solution containing Lucifer yellow (LY) and Brilliant Cresyl Blue (BCB) in the ratio 1:9 is added into the donor well. The PAMPA system can be assembled and incubated for 5 hours at 25° C. The acceptor plate and donor well are separated and concentration of LY and BCB was analyzed by measuring; Fluorescence: Excitation wavelength @428 mn; Emission wavelength @525 nm; Absorbance; at 610 nm for BCB.
FIG. 3 illustrates the graph 300 showing the permeation of BCB as 0.045; Absorbance units after 5 hours of incubation indicating the presence of integral membrane. Similarly, the graph 400 illustrates the rejection of Lucifer Yellow after 5 hours of incubation indicating the presence of integral membrane. The rejection of Lucifer yellow indicates the presence of an integral membrane.
(In PAMPA a lipid-coated filter parts donor from acceptor wells.)

Take Brilliant Cresyl Blue [BCB]: the “permeation of BCB (absorbance at 610 nm, acceptor)” value (PAMPA) is 0.045 Absorbance units.

With Lucifer yellow, the “permeation/rejection of Lucifer Yellow (fluorescence, excitation 428 / emission 525 nm)” value (LY:BCB 1:9 aqueous solution, 80 μl in donor well, after 5 hours of incubation at 25° C.) was “rejection”.
